This is an account of results in paper PMC12355328 (ACS Omega, 2025).

pIC50, pKi: −log10 of the molar value. In brackets after ≈: the same amount, converted by molar mass. Residues, ends and D or L forms follow the SMILES beside them. Where only a bound is given, the exact number is not on record here.

A short description of series [1]: Dye-leakage assay, POPG/TOCL. Conditions: 100 μM POPG/TOCL LUV; 298 K.
Series [2] in a line: Dye-leakage assay, POPE/POPG. To be noted: 100 μM POPE/POPG LUV; 298 K.
The nature of series [3]: Circular dichroism spectroscopy. The class given is physicochemical. Conditions: 50 μM, 100 mM NaF, 10 mM KH2PO4, pH 7.5; averaged of three repeats, 298 K. (In general: Circular dichroism is widely used to follow secondary structure.)
The next series deals with DNA gyrase (Escherichia coli, UniProt P0AES4+P0AES6). As to the kind of experiment: DNA gyrase inhibition. The class given is biochemical.
Sequence of DNA gyrase (P0AES4 whole entry, one chain of several): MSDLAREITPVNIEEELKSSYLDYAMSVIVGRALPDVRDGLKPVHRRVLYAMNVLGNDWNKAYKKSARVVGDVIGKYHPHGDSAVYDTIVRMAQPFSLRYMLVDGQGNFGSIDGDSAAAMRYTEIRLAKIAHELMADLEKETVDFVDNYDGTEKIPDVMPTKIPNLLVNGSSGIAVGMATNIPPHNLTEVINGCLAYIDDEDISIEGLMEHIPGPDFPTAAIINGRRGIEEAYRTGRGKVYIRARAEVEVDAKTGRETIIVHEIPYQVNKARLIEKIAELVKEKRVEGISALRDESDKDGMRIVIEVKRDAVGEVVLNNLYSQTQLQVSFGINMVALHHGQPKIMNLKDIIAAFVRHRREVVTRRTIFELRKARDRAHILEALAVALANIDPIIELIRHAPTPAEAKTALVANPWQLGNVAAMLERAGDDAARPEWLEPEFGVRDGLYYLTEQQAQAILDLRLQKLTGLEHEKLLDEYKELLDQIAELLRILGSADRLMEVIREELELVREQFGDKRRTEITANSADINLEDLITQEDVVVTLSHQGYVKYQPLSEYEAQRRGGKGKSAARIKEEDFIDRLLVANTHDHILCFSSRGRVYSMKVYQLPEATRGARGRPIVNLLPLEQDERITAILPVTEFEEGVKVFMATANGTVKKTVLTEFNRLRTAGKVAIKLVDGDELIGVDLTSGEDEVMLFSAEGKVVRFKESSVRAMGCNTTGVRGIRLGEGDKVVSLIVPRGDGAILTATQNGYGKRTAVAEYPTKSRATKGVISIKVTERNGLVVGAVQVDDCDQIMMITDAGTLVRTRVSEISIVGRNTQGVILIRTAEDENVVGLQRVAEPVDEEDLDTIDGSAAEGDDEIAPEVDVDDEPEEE
Another series concerns the target DnaK (Escherichia coli, UniProt P0A6Y8). As to the kind of experiment: DnaK binding assay.
The subject of a further series is E. coli BAA 3051. As to the kind of experiment: MIC assay, ciprofloxacin-resistant E. coli. To be noted: E. coli BAA 3051 (ciprofloxacin-resistant); MHB, 6 h, OD600; concentration at which growth surpassed 10%. The series is classed as cell-based, Escherichia coli.
The next series concerns E. coli ATCC25922. Description: MIC assay, ciprofloxacin-sensitive E. coli. To be noted: MHB, 6 h, OD600, concentration at which growth surpassed 10%. The class given is cell-based, Escherichia coli.

Sequence of DnaK (P0A6Y8 whole entry): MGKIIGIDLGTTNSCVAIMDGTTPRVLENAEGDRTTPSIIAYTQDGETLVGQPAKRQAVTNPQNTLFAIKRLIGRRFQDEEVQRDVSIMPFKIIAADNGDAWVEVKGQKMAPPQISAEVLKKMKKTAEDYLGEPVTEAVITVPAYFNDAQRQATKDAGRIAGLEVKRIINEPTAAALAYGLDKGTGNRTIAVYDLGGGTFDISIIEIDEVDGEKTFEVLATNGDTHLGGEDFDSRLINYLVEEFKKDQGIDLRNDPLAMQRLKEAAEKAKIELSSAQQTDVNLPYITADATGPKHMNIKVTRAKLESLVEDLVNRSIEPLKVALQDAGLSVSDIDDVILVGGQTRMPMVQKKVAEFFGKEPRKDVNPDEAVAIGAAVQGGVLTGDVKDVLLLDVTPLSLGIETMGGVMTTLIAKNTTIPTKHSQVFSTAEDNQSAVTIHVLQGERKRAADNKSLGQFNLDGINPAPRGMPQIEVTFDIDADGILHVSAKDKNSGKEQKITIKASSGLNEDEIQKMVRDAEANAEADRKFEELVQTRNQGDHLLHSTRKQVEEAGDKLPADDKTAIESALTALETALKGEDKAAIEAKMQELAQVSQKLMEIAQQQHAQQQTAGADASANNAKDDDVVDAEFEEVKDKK

`O=C(O)c1cn(C2CC2)c2cc(N3CCNCC3)c(F)cc2c1=O` [ciprofloxacin]: the “leakage profile (in words)” value in series [1] is listed as “showed a similar trend as in POPC”; in series [2], “showed a similar trend to POPC”. Besides, the “CD: conformation / aggregation in buffer (in words)” value in series [3] is given as “not optically active in CD”.
Usually pIC50 stands for −log10 of the IC50, conventionally taken in molar units. Read a low pIC50 as a high IC50. As usually defined, the pKi is the Ki on a negative log10 scale, so that one unit is a factor of ten. The low end stands for a large Ki, the high end for a small Ki. In general, MIC refers to the lowest concentration that inhibits growth of the organism. The low end stands for greater potency, the high end for weaker potency. Take `CC[C@H](C)[C@H](NC(=O)[C@H](CCCNC(=N)N)NC(=O)[C@H](CCCNC(=N)N)NC(=O)[C@@H]1CCCN1C(=O)[C@@H]1CCCN1C(=O)[C@H](CCCNC(=N)N)NC(=O)[C@@H]1CCCN1C(=O)[C@H](CCCNC(=N)N)NC(=O)[C@@H]1CCCN1C(=O)[C@H](CC(C)C)NC(=O)[C@H](Cc1ccc(O)cc1)NC(=O)[C@@H]1CCCN1C(=O)[C@@H]1CCCN1C(=O)[C@H](CCCCN)NC(=O)[C@H](CC(=O)O)NC(=O)[C@@H](N)C(C)C)C(=O)N[C@@H](Cc1ccc(O)cc1)C(=O)N[C@@H](CC(N)=O)C(=O)N[C@@H](CCCNC(=N)N)C(N)=O` [oncocin] (H-VDKPPYLPRPRPPRRIYNR-NH2): the pIC50 on DNA gyrase is less than 5.00; on DnaK, 5.81. Also, the pKi on DnaK is 6.41. Besides, the MIC in the series on E. coli BAA 3051 and in the series with E. coli ATCC25922 was 1 µM (≈ 2.39 µg/mL) throughout.
